Results taken from patent US9296741B2, “Bromodomain inhibitors” (priority 2012, dated 2016).
Each block holds one compound with its values, some of them ahead of it.

Columns and labels:
[1] = Mouse liver microsome stability assay; type: in vitro ADME; settings: male, CD1, mouse, microsomes, pH 7.4
[2] = tested on: breast cancer cell line MX-1; assay: MX-1 cell line proliferation assay; type: cell-based, human; settings: Homo sapiens, MX1, 72 h; MX-1 cells, 3-day proliferation, Cell Titer Glo; read-out: Cellular proliferation: EC50
[3] = tested on: LPS induced IL-6 production; assay: LPS (lipopolysaccharide) induced IL-6 production mouse assay; type: in vivo; settings: Mus musculus, read-out: Inhibition of LPS induced IL-6 production in Mice, % inhibition at 3 mg/kg; 3 mg/kg oral, 1 h before LPS; serum IL-6 2 h after LPS
[4] = Rat liver microsome stability assay; type: in vitro ADME; settings: rat liver microsomes (male Sprague-Dawley), 0.5 μM test compound, 0.25 mg/mL microsomal protein, pH 7.4, 37° C.; read-out: Stability in rat liver microsomes (t1/2 in minutes)
[5] = Human liver microsome stability assay; type: in vitro ADME; settings: both sexes, human, microsomes, pH 7.4
[6] = biological target: human BRD4 second bromodomain (BDII_E352-M457) (Homo sapiens (Human), UniProt O60885); assay: TR-FRET bromodomain binding assay, BRD4 second bromodomain
[7] = biological target: human BRD4 first bromodomain (BDI_K57-E168) (Homo sapiens (Human), UniProt O60885); assay: TR-FRET bromodomain binding assay, BRD4 first bromodomain

Structure (SMILES): Cn1cc(-c2cc(NS(C)(=O)=O)cc(F)c2Oc2ccccc2)c2cc[nH]c2c1=O [Example 24, N-[3-fluoro-5-(6-methyl-7-oxo-6,7-dihydro-1H-pyrrolo[2,3-c]pyridin-4-yl)-4-phenoxyphenyl]methanesulfonamide]
half-life at 0.5 μM [1]: 55 min | EC50 [2]: 12.6 nM | inhibition in vivo at 3 mg/kg [3]: 58% | half-life at 0.5 μM [4]: 5 min | half-life at 0.5 μM [5]: 29 min

Structure (SMILES): Cn1cc(-c2cc(NS(C)(=O)=O)ccc2Oc2ccc(F)cc2)c2cc[nH]c2c1=O [Example 26, N-[4-(4-fluorophenoxy)-3-(6-methyl-7-oxo-6,7-dihydro-1H-pyrrolo[2,3-c]pyridin-4-yl)phenyl]methanesulfonamide]
EC50 [2]: 17.1 nM | inhibition in vivo at 3 mg/kg [3]: 60% | Ki [6]: 3.3 nM | Ki [7]: 2.1 nM

Structure (SMILES): Cn1cc(-c2cc(S(C)(=O)=O)ccc2Oc2ccccc2F)c2cc[nH]c2c1=O [Example 149, 4-[2-(2-fluorophenoxy)-5-(methylsulfonyl)phenyl]-6-methyl-1,6-dihydro-7H-pyrrolo[2,3-c]pyridin-7-one]
EC50 [2]: 29.7 nM | inhibition in vivo at 3 mg/kg [3]: 69% | Ki [6]: 3 nM | Ki [7]: 11.5 nM

Structure (SMILES): Cn1cc(-c2cc(S(C)(=O)=O)ccc2Oc2cccc(F)c2)c2cc[nH]c2c1=O [Example 150, 4-[2-(3-fluorophenoxy)-5-(methylsulfonyl)phenyl]-6-methyl-1,6-dihydro-7H-pyrrolo[2,3-c]pyridin-7-one]
EC50 [2]: 66.5 nM | inhibition in vivo at 3 mg/kg [3]: 54% | Ki [6]: 4.2 nM | Ki [7]: 9.7 nM

Structure (SMILES): Cn1cc(-c2cc(S(C)(=O)=O)ccc2Oc2ccc(F)cc2)c2cc[nH]c2c1=O [Example 151, 4-[2-(4-fluorophenoxy)-5-(methylsulfonyl)phenyl]-6-methyl-1,6-dihydro-7H-pyrrolo[2,3-c]pyridin-7-one]
EC50 [2]: 54.9 nM | inhibition in vivo at 3 mg/kg [3]: 66% | Ki [6]: 8.1 nM | Ki [7]: 10.7 nM

The next lines start with results.

half-life at 0.5 μM [1]: 43 min | EC50 [2]: 182 nM | half-life at 0.5 μM [4]: > 120 min | half-life at 0.5 μM [5]: > 120 min
Structure (SMILES): Cn1cc(-c2cc(S(N)(=O)=O)cnc2OC2CCOC2)c2cc[nH]c2c1=O (centres unmarked) [Example 86, 5-(6-methyl-7-oxo-6,7-dihydro-1H-pyrrolo[2,3-c]pyridin-4-yl)-6-(tetrahydrofuran-3-yloxy)pyridine-3-sulfonamide]
inhibition in vivo at 3 mg/kg [3]: 55%

EC50 [2]: 53.4 nM | half-life at 0.5 μM [4]: 23 min | half-life at 0.5 μM [5]: > 120 min
Structure (SMILES): CNS(=O)(=O)c1cnc(OC2CCOC2)c(-c2cn(C)c(=O)c3[nH]ccc23)c1 (centres unmarked) [Example 87, N-methyl-5-(6-methyl-7-oxo-6,7-dihydro-1H-pyrrolo[2,3-c]pyridin-4-yl)-6-(tetrahydrofuran-3-yloxy)pyridine-3-sulfonamide]
inhibition in vivo at 3 mg/kg [3]: 57%

EC50 [2]: 43 nM | Ki [6]: 12.2 nM | Ki [7]: 6.5 nM
Structure (SMILES): Cn1cc(-c2cc(S(C)(=O)=O)ccc2NC2CCOC2)c2cc[nH]c2c1=O (centres unmarked) [Example 167, 6-methyl-4-[5-(methylsulfonyl)-2-(tetrahydrofuran-3-ylamino)phenyl]-1,6-dihydro-7H-pyrrolo[2,3-c]pyridin-7-one]
inhibition in vivo at 3 mg/kg [3]: 64%

EC50 [2]: 22.8 nM | half-life at 0.5 μM [4]: > 120 min | Ki [6]: 1.4 nM | Ki [7]: 1.7 nM
Structure (SMILES): CCS(=O)(=O)c1ccc(O[C@H]2CC[C@@H](O)CC2)c(-c2cn(C)c(=O)c3[nH]ccc23)c1 [Example 202, 4-{5-(ethylsulfonyl)-2-[(cis-4-hydroxycyclohexyl)oxy]phenyl}-6-methyl-1,6-dihydro-7H-pyrrolo[2,3-c]pyridin-7-one]
inhibition in vivo at 3 mg/kg [3]: 68%

EC50 [2]: 4.7 nM | half-life at 0.5 μM [4]: > 120 min | Ki [6]: 0.75 nM | Ki [7]: 0.69 nM
Structure (SMILES): CCS(=O)(=O)c1ccc(O[C@H]2CC[C@H](O)CC2)c(-c2cn(C)c(=O)c3[nH]ccc23)c1 [Example 203, 4-{5-(ethylsulfonyl)-2-[(trans-4-hydroxycyclohexyl)oxy]phenyl}-6-methyl-1,6-dihydro-7H-pyrrolo[2,3-c]pyridine-7-one]
inhibition in vivo at 3 mg/kg [3]: 78%
